According to US20230255974A1, “USE OF THYROMIMETICS FOR THE TREATMENT OF CANCER” (THE UNIVERSITY OF VERMONT, priority 2020, published 2023):

Tests used:
MCF7 = test: Mammosphere growth, Luminal A breast cancer cells; format: cell-based; details: MCF7, 10 nM GC-1, 5 days
Excerpt: Data are mean+/−SD; * indicates p<0.05 determined by t-test.

MDA-MB-453 cells = test: Relative cell growth by cell counting, HER2+ breast cancer cells; format: cell-based; details: MDA-MB-453, 10 nM GC-1, 8 days
Experimental: A similar study was then performed in MDA-MB-453 cells, human epidermal growth factor positive-HER2+, breast cancer cells.

Cc1nc(NC(=O)N2CCC[C@H]2C(N)=O)sc1-c1ccnc(C(C)(C)C(F)(F)F)c1 [Alpelisib, (2S)-1-N-[4-methyl-5-[2-(1,1,1-trifluoro-2-methylpropan-2-yl)pyridin-4-yl]-1,3-thiazol-2-yl]pyrrolidine-1,2-dicarboxamide]
effect of inhibitor in the presence of GC-1 (MCF7): enhanced the effect
cell growth, inhibitor in the presence of GC-1 (MDA-MB-453 cells): enhanced the effect of Alpelisib in reducing cell growth
